The source of these data is patent publication US10717730B1, “Dihydroisoquinoline compound” (SUZHOU ARK BIOPHARMACEUTICAL CO., LTD., priority 2017, dated 2020).

Where a name gives a salt, the structure may show the parent alone.

This assay relates to HBsAg. The experiment in a line: HBsAg assay (secreted HBsAg by CLIA in HepG2.2.15 cells). The assay is classed as cell-based, hepatitis B virus (HBV). To be noted: Hepatitis B virus, HepG2.2.15, 96 h. The protocol: HepG2.2.15 cells (Sells et al, Proc Natl Acad Sci USA. 1987 February; 84(4):1005-9), a constitutively HBV-expressing cell line, were cultured in DMEM medium supplemented with 10% FBS and 400 μg/mL G418, and maintained in 5% CO2 at 37° C.
HepG2.2.15 cells were seeded into 96-well plates at 3×10^4 cells/well. The next day, the cells were treated with a five-fold serial dilution series of the compound in DMSO. The final DMSO concentration in all wells was 0.5% and 0.5% DMSO was used as no drug control. After four days of incubation with compounds, the supernatants were harvested and measured for HBsAg concentration
The HBsAg chemiluminescence immunoassay (CLIA) kit was used to measure the levels of secreted HBsAg. Specifically, 50 μL of culture supernatant was transferred to the CLIA assay plate and 50 μL of enzyme conjugate reagent was added into each well. The plates were sealed and incubated for 1 hour at room temperature. The supernatant-enzyme-mixture was discarded and wells were washed for 6 times. The residual liquid was removed by plating on tissue paper. 25 μL of substrate A and B were added into each well. Luminance was measured using a spectrometer (Tecan Infinite® F200) after 10 minutes incubation. IC50 value was extrapolated based the dose-response curves generated from the data.

The term IC50 denotes the concentration that inhibits the measured activity by half. A high value points to weaker potency. In turn, `COc1cc2c(cc1-c1ccnn1C)CC(C(C)(C)C)n1cc(C(=O)O)c(=O)cc1-2` (stereo not drawn) [Example 13, 6-(tert-butyl)-10-methoxy-9-(1-methyl-1H-pyrazol-5-yl)-2-oxo-6,7-dihydro-2H-pyrido[2,1-a]isoquinoline-3-carboxylic acid] showed an IC50 of 18 nM.
For `COCCOc1ccc(-c2cc3c(cc2OC)-c2cc(=O)c(C(=O)O)cn2C(C(C)(C)C)C3)cn1` (stereo not drawn) [Example 42, 6-(tert-butyl)-10-methoxy-9-(6-(2-methoxyethoxy)pyridin-3-yl)-2-oxo-6,7-dihydro-2H-pyrido[2,1-a]isoquinoline-3-carboxylic acid] the value was 2 nM; for `COc1cc2c(cc1-c1cnn(C(C)(C)C(=O)O)c1)CC(C(C)(C)C)n1cc(C(=O)O)c(=O)cc1-2` (stereo not drawn) [Example 27, 6-(tert-butyl)-9-(1-(2-carboxyprop-2-yl)-1H-pyrazol-4-yl)-10-methoxy-2-oxo-6,7-dihydro-2H-pyrido[2,1-a]isoquinoline-3-carboxylic acid], 4 nM.
The value for `COc1cc2c(cc1-c1cnc(Cl)nc1)CC(C(C)(C)C)n1cc(C(=O)O)c(=O)cc1-2` (stereo not drawn) [Example 68, 6-(tert-butyl)-9-(2-chloropyrimidin-5-yl)-10-methoxy-2-oxo-6,7-dihydro-2H-pyrido[2,1-a]isoquinoline-3-carboxylic acid] was 0.6 nM.
For `COc1ncc(-c2cc3c(cc2OC)-c2cc(=O)c(C(=O)O)cn2C(C(C)(C)C)C3)cn1` (stereo not drawn) [Example 66, 6-(tert-butyl)-10-methoxy-9-(2-methoxypyrimidin-5-yl)-2-oxo-6,7-dihydro-2H-pyrido[2,1-a]isoquinoline-3-carboxylic acid] the value was 0.8 nM.
As for `COc1cc2c(cc1-c1ccc(N3CCCC3)nc1)CC(C(C)(C)C)n1cc(C(=O)O)c(=O)cc1-2` (stereo not drawn) [Example 44, 6-(tert-butyl)-10-methoxy-2-oxo-9-(6-(pyrrolidin-1-yl)pyridin-3-yl)-6,7-dihydro-2H-pyrido[2,1-a]isoquinoline-3-carboxylic acid], the IC50 is 10 nM.
For `COc1cc2c(cc1-c1ccc(N3CCN(C)CC3)nc1)CC(C(C)(C)C)n1cc(C(=O)O)c(=O)cc1-2` (stereo not drawn) [Example 47, 6-(tert-butyl)-10-methoxy-9-(6-(4-methylpiperazin-1-yl)pyridin-3-yl)-2-oxo-6,7-dihydro-2H-pyrido[2,1-a]isoquinoline-3-carboxylic acid] the value was 2 nM.
For `COc1cc2c(cc1-c1cnc(NCC3CC3)nc1)CC(C(C)(C)C)n1cc(C(=O)O)c(=O)cc1-2` (stereo not drawn) [Example 67, 6-(tert-butyl)-9-(2-(cylcopropylmethylamino)pyrimidin-5-yl)-10-methoxy-2-oxo-6,7-dihydro-2H-pyrido[2,1-a]isoquinoline-3-carboxylic acid] the value was 0.3 nM; for `COc1cc2c(cc1-c1ccc(C(F)(F)F)nc1)CC(C(C)(C)C)n1cc(C(=O)O)c(=O)cc1-2` (stereo not drawn) [Example 41, 6-(tert-butyl)-10-methoxy-2-oxo-9-(6-trifluoromethylpyridin-3-yl)-6,7-dihydro-2H-pyrido[2,1-a]isoquinoline-3-carboxylic acid], 2 nM.
The value for `COc1cc2c(cc1-c1ccc(N3CCOCC3)nc1)CC(C(C)(C)C)n1cc(C(=O)O)c(=O)cc1-2` (stereo not drawn) [Example 40, 6-(tert-butyl)-10-methoxy-9-(6-morpholinylpyridin-3-yl)-2-oxo-6,7-dihydro-2H-pyrido[2,1-a]isoquinoline-3-carboxylic acid] was 6 nM.
Compound `COc1cc2c(cc1-c1ccccc1)CC(C(C)(C)C)n1cc(C(=O)O)c(=O)cc1-2` (stereo not drawn) [Example 33, 6-(tert-butyl)-10-methoxy-2-oxo-9-phenyl-6,7-dihydro-2H-pyrido[2,1-a]isoquinoline-3-carboxylic acid] returned an IC50 of 20 nM.
For `COc1cc2c(cc1-c1cnc(NC3CCC3)nc1)CC(C(C)(C)C)n1cc(C(=O)O)c(=O)cc1-2` (stereo not drawn) [Example 76, 6-(tert-butyl)-9-(2-(cyclobutylamino)pyrimidin-5-yl)-10-methoxy-2-oxo-6,7-dihydro-2H-pyrido[2,1-a]isoquinoline-3-carboxylic acid] the value was 0.4 nM.
For `COc1cc2c(cc1-c1cnn(CCCO)c1)CC(C(C)C)n1cc(C(=O)O)c(=O)cc1-2` (stereo not drawn) [Example 4, 9-(1-(3-hydroxypropyl)-1H-pyrazol-4-yl)-6-isopropyl-10-methoxy-2-oxo-6,7-dihydro-2H-pyrido[2,1-a]isoquinoline-3-carboxxylic acid] the value was 24 nM; for `COc1cc2c(cc1-c1cnc(N3CCOCC3)nc1)CC(C(C)(C)C)n1cc(C(=O)O)c(=O)cc1-2` (stereo not drawn) [Example 62, 6-(tert-butyl)-10-methoxy-9-(2-morpholinylpyrimidin-5-yl)-2-oxo-6,7-dihydro-2H-pyrido[2,1-a]isoquinoline-3-carboxylic acid], 5 nM.
The value for `COc1cc2c(cc1-c1cnn(C3CCNCC3)c1)CC(C(C)(C)C)n1cc(C(=O)O)c(=O)cc1-2` (stereo not drawn) [Example 17, 6-(tert-butyl)-10-methoxy-2-oxo-9-(1-(piperidin-4-yl)-1H-pyrazol-4-yl)-6,7-dihydro-2H-pyrido[2,1-a]isoquinoline-3-carboxylic acid hydrochloride] was 25 nM; that for `COc1cc2c(cc1-c1cnn(C3COC3)c1)CC(C(C)(C)C)n1cc(C(=O)O)c(=O)cc1-2` (stereo not drawn) [Example 11, 6-(tert-butyl)-10-methoxy-9-(1-(oxetan-3-yl)-1H-pyrazol-4-yl)-2-oxo-6,7-dihydro-2H-pyrido[2,1-a]isoquinoline-2-carboxylic acid] was 3 nM.
Compound `COc1cc2c(cc1-c1cnc(N(C)C)nc1)CC(C(C)(C)C)n1cc(C(=O)O)c(=O)cc1-2` (stereo not drawn) [Example 61, 6-(tert-butyl)-9-(2-(dimethylamino)pyrimidin-5-yl)-10-methoxy-2-oxo-6,7-dihydro-2H-pyrido[2,1-a]isoquinoline-3-carboxylic acid] returned a concentration for half-maximal inhibition (IC50) of 4 nM.
For `COc1cc2c(cc1-c1cnc(N3CCC(C(=O)O)C3)nc1)CC(C(C)(C)C)n1cc(C(=O)O)c(=O)cc1-2` (stereo not drawn) [Example 77, 6-(tert-butyl)-9-(2-(3-carboxypyrrolidin-1-yl)pyrimidin-5-yl)-10-methoxy-2-oxo-6,7-dihydro-2H-pyrido[2,1-a]isoquinoline-3-carboxylic acid] the value was 150 nM; for `CCc1ccc(-c2cc3c(cc2OC)-c2cc(=O)c(C(=O)O)cn2C(C(C)(C)C)C3)cc1` (stereo not drawn) [Example 34, 6-(tert-butyl)-9-(4-ethylphenyl)-10-methoxy-2-oxo-6,7-dihydro-2H-pyrido[2,1-a]isoquinoline-3-carboxylic acid], 36 nM.
The value for `COc1cc2c(cc1-c1ccc(N3CCNCC3)nc1)CC(C(C)(C)C)n1cc(C(=O)O)c(=O)cc1-2` (stereo not drawn) [Example 45, 6-(tert-butyl)-10-methoxy-2-oxo-9-(6-(piperazin-1-yl)pyridin-3-yl)-6,7-dihydro-2H-pyrido[2,1-a]isoquinoline-3-carboxylic acid] was 14 nM; that for `COc1cc2c(cc1-c1cc(C)nn1C)CC(C(C)(C)C)n1cc(C(=O)O)c(=O)cc1-2` (stereo not drawn) [Example 15, 6-(tert-butyl)-9-(1,3-dimethyl-1H-pyrazol-5-yl)-10-methoxy-2-oxo-6,7-dihydro-2H-pyrido[2,1-a]isoquinoline-3-carboxylic acid] was 4 nM.
